We go through one compound from patent publication US20050124554A1, “Spermidine derivatives for the treatment of chronic neurodegenerative diseases” (priority 2002, published 2005).

The structures appear in SMILES notation.

The subject of experiment [1] is superoxide production in organotypic slice cultures (CA1 pyramidal cell layer). Description: Superoxide production monitored fluorescently with hydroethidine (HEt). The format is cell-based, Wistar rat. Here is the method: Hydroethidine (HEt) has been utilised to fluorescently monitor the production of superoxide in primary neuronal cultures [Bindokas et al., (1996), Carriedo et al. (1998)]. A stock solution of HEt was made was made in N2 sparged DMSO (10 mg ml^−1) which was then aliquoted and stored at −80° C. aliquots were used only once before being discarded. Two separate experimental paradigms were employed to test the effect of L-Arg3,4 on superoxide production in response to either AMPA or NMDA stimulation.
For the AMA experiments, organotypic slice cultures were loaded with 1 μg ml^−1 HEt in HEPES buffered salt solution (HSS) (in mM): glucose 10, NaCl 144, KCl 5, HEPES 10, MgCl2 1, CaCl2 2, pH 7.4, for 30 minutes in the dark. All subsequent solutions contained HEt to prevent a decrease in signal due to reporter depletion. Images were acquired once per minute for the duration of the experiment on the same system as described above for assessment of cell death. A 10 minute record of baseline superoxide production was produced before the bathing solution was exchanged for HBSS+BEt containing 10 μM AMPA, again for 10 minutes. As shown previously, stimulation of glutamate receptors with AMPA lead to an increase in superoxide production [Bindokas et al., (1996), Carriedo et al. (1998)]. The bathing solution was then exchanged for HBSS+HEt containing both 10 μM AMPA and 300 μM L-Arg3,4 for 10 minutes to test the effect of L-Arg3,4 on superoxide production. In separate control experiments, 300 μM L-Arg3,4 in HSS was incubated with slices to determine if it affected baseline superoxide production on its own.
Acquired images from the AMPA experiments were then analysed with the OpenLab image analysis package. A region of interest was drawn around the CA1 pyramidal cell layer because this was the cell layer that produced the largest increase in fluorescence in response to AMPA activation. In each image, within the region of interest, the average pixel value was calculated in arbitrary units (AU) to produce a record of fluorescence intensity values over time. A linear regression was then performed on the data to calculate the rate of superoxide production as change in intensity over time (arbitrary units per minute, AU min^−1) for each of the treatments. Data is presented as mean±s.d. Rates of superoxide production were then compared by ANOVA followed by post-hoc comparisons with Bonferroni corrections with significance indicated as * for P<0.05 and ** for P<0.01.

The test system of experiment [2] is acute hippocampal slices (CA1 pyramidal cell layer, Schaffer collateral stimulation). The experiment in a line: Electrophysiology: evoked field responses / synaptic transmission. The arrangement: species or system Sprague-Dawley rats. From the text:
All animal procedures to produce acute hippocampal slices were approved by the Home Office. Male, 250 g, Sprague-Dawley rats were deeply anaesthetised with halothane and decapitated. The brain was quickly removed, and the hippocampi dissected out and then cut into 300 μm thick transverse slices on a vibratome (Leica, Milton Keynes, UK) in cold cutting solution (in mM: 189 sucrose, 2.5 KCl, 26 NaHCO3, 1.2 NaH2PO4, 10 glucose, 5 MgCl2, 0.1 CaCl2) equilibrated with 5% CO2, 95% O2. Slices were transferred to aCSF (in mM: 10 glucose, 125 NaCl, 5 KCl, 26 NaHCO3, 1 MgCl2, 1.25 NaH2PO4, 2 CaCl2, 10 sucrose) at room temperature, bubbled with 5% CO2 and 95% O2, for at least 1 h before use.
Slices were then transferred to a submerged perfusion chamber (2 ml volume) for the electrophysiological recordings and were perfused at 10 ml min^−1 at 25° C. with aCSF equilibrated with 5% CO2 and 95% O2, and allowed to equilibrate for 1 h before manipulations were started. Experimental compounds were applied by bath perfusion. L-Arg3,4 was applied at 300 μM and DNQX was applied at 10 μM final concentration. DNQX was diluted from a 40 mM stock in DMSO (final DMSO of 0.025%). The Schaffer collaterals of CA3 were stimulated at voltages from 0 to 30 V with a constant voltage stimulator (Digitimer, Hertfordshire, UK) via a twisted pair stimulating electrode of polyimide coated stainless steel wire (Plastics One, Roanoke, Va.). Field potential responses were recorded with an Axopatch 200B amplifier (Axon Instruments, Foster City, Calif.) in the fast current clamp mode via a 2M KCl filled glass electrode (2-5 MQ) in the CA1 pyramidal cell layer. Responses were filtered at 2 kHz, digitised at 20 kHz with a Digidata 1320A (Axon Instruments), and stored onto hard disk with Clampex 8.1 software (Axon Instruments) running on a Dell Pentium III PC. Data was analysed in Clampfit 8.1 (Axon Instruments).
Stimulus-response (S/R) curves were generated from stimuli from 0 to 30 V in 2 V increments. Bath perfusion of 300 μM L-Arg3,4 in aCSF was applied for 10 min with a sub-maximal stimulus applied every minute to monitor synaptic transmission. A second S/R curve was generated before the perfusion was switched back to plain aCSF. A sub-maximal stimulus was applied every minute during the 15 min wash period after which a third SIR curve was generated. Perfusion of 10 μM DNQX was then started until the response to the sub-maximal stimulus was completely eliminated which always occurred within 10 min. […] In Clampfit, S/R curves were fit to a sigmoidal function of the form: [formula] where R is the magnitude of the evoked response, Rmax is the maximum response, V50 is the voltage which produces a half maximal response, S is the stimulus voltage, and m is proportional to the slope of the linear region of the sigmoid. Data was compared by one way ANOVA.

Setting [3] is: during bath perfusion of 300 μM, n=6.

On to `N=C(N)NCCCC(N)C(=O)NCCCNCCCCN` [L-Arg3,4, L-arginyl-3,4-spermidine], for which the “rate of baseline superoxide production” value in experiment [1] (300 μM compound alone, no AMPA) worked out at 2.55±2.02 AU min^−1. Besides, the “rate of superoxide production” value in experiment [1] (300 μM compound in continued presence of 10 μM AMPA) worked out at 5.07±1.94 AU min-d. Further, the “effect on evoked responses” value in experiment [2] (bath application, L-Arg3,4 300 μM, DNQX 10 μM) was “had no effect on evoked responses”. Moreover, in experiment [2] (setting [3]), the “Rmax (maximum evoked response, S/R curve fit)” value is listed as 2.71 ± 1.31 mV; the “V50 (voltage producing half maximal response)” value is listed as 15.98 ± 5.12 V; the “m (proportional to slope of sigmoid)” value was 0.59 ± 0.48.
